# Several values for one entry are separate records, joined by “and”; a condition that tells them apart may be missing. Equal entries are not always repeated. Where two headings read alike, the source gives them in different places. Marks after values point to notes of the source that are not given here.
# What was measured:
# [1] = Phase 1/1b clinical trial: plasma pharmacokinetics of PF-07220060; assay type: in vivo, human; conditions: for Cmax / AUC / Tmax / half-life: po; for half-life: arithmetic mean
# Method: Oral PF-07220060 was administered with at least 8 oz (240 mL) of water on an empty stomach (except during the food effect evaluation on Day-7 in Part 1D). No food or liquids other than water was consumed for 2 hours before and 1 hour following each dose throughout the study for BID dosing. No food or liquids other than water was consumed for 2 hours before and 2 hours after each dose throughout the study for QD dosing.
# In the ongoing Phase 1/1b Study, as of Aug. 30, 2022, preliminary PK data for PF-07220060 as monotherapy (Part 1A) and in combination with endocrine therapy (Part 1B and Part 1C) was available from 60 participants with advanced solid tumors. PF-07220060 was administered orally as a single agent at doses ranging from 100 to 500 mg BID, and in combination with either letrozole or fulvestrant at 300 to 400 mg BID. Available plasma concentration-time data of PF-07220060 were analyzed using noncompartmental methods.
# Preliminary noncompartmental PK analysis was conducted based on available samples collected from participants in the Study. […] Table 4 presents the summary of PK parameters for PF-07220060 as monotherapy, and in combination with letrozole or fulvestrant.
# [2] = system: AR+ prostate carcinoma cell line (LNCaP) prostate cancer spheroids; assay: Multicellular tumor spheroid growth inhibition (SGI), LNCaP; assay type: cell-based, human
# Method: (§1) The purpose of this example was to evaluate the combination effect of PF-07220060 and endocrine therapy in multicellular tumor spheroid growth inhibition (SGI). To model the characteristics and cellular behavior of human tumors, the activity of PF-07220060 was evaluated in three dimensional MCTS models of HR+ breast cancer and AR+ prostate cancer following PF-07220060 treatment as a single agent and in combination with fulvestrant • 1) in HR+, HER2-T47D breast cancer spheroids. • 2) in HR+, HER2+BT474 breast cancer spheroids, • 3) in BT474 spheroids, and • 4) in AR+ prostate carcinoma cell line (LNCaP) prostate cancer spheroids. Spheroids were treated with increasing concentrations of 100, 300, or 1000 nM PF-07220060 and compared to palbociclib at the clinically relevant concentration of 30 nM.
# [3] = system: HR+, HER2- T47D breast cancer spheroids; assay: Multicellular tumor spheroid growth inhibition (SGI), T47D; assay type: cell-based, human
# Method: as §1, with “nM. Single agent PF-07220060 inhibited spheroid growth in a dose-dependent manner, with highest efficacy (86% SGI over the duration of treatment with 1000 nM) shown in the T47D BC spheroid model (Table 1). Combining 100 nM PF-07220060 with 1 nM fulvestrant in T47D cells increased SGI to 96% compared to either single agent alone (57 to 67% SGI with 100 nM PF-07220060 or 79% SGI with fulvestrant) (Table 1). BT474 spheroids were relatively less sensitive to PF-07220060 resulting in 52% SGI at 1000 nM.” for “nM.”
# [4] = 200 mg BID oral monotherapy (Part 1A), C1D15, geometric mean
# [5] = 300 mg BID oral + fulvestrant (Part 1C), C1D15, geometric mean
# [6] = 300 mg BID oral + letrozole (Part 1B), C1D15, geometric mean
# [7] = 300 mg BID oral monotherapy (Part 1A), C1D15, geometric mean
# [8] = 400 mg BID oral + fulvestrant (Part 1C), C1D15, geometric mean
# [9] = 400 mg BID oral + letrozole (Part 1B), C1D15, geometric mean
# [10] = 400 mg BID oral monotherapy (Part 1A), C1D15, geometric mean
compound,measurement,setting,value
"CC(C)n1c(C(C)(C)O)nc2c(F)cc(-c3nc(N[C@@H]4CCOC[C@H]4O)ncc3Cl)cc21 [PF-07220060, 1,5-anhydro-3-({5-chloro-4-[4-fluoro-2-(2-hydroxypropan-2-yl)-1-(propan-2-yl)-1H-benzimidazol-6-yl]pyrimidin-2-yl}amino)-2,3-dideoxy-D-threo-pentitol]",CL/F,"[1]; 100 mg BID oral monotherapy (Part 1A), C1D15, geometric mean, n = 2",24.61 L/h
same,CL/F,[1]; [4],31.41 L/h
same,Cmin,[1]; [4],440 ng/mL
same,CL/F,[1]; [5],38.02 L/h
same,Cmin,[1]; [5],347.4 ng/mL
same,CL/F,[1]; [6],28.95 L/h
same,Cmin,[1]; [6],487.1 ng/mL
same,CL/F,[1]; [7],37.06 L/h
same,Cmin,[1]; [7],470.4 ng/mL
same,CL/F,[1]; [8],41.86 L/h
same,Cmin,[1]; [8],563.3 ng/mL
same,CL/F,[1]; [9],34.9 L/h
same,Cmin,[1]; [9],728.3 ng/mL
same,CL/F,[1]; [10],49.98 L/h
same,Cmin,[1]; [10],450.3 ng/mL
same,Cmin,"[1]; 500 mg BID oral monotherapy (Part 1A), C1D15, geometric mean",848.8 ng/mL
same,CL/F,"[1]; 500 mg BID oral monotherapy (Part 1A), C1D15, n = 1",40.1^a L/hr
same,Cmax,"[1]; human, plasma, 100 mg, 100 mg BID oral monotherapy (Part 1A), C1D1 post first dose, geometric mean",280 ng/mL
same,AUC,"[1]; human, plasma, 100 mg, 100 mg BID oral monotherapy (Part 1A), C1D1 post first dose, geometric mean, read-out: AUC12",1780 ng·h/mL
same,Tmax,"[1]; human, plasma, 100 mg, 100 mg BID oral monotherapy (Part 1A), C1D1 post first dose, median, read-out: Tmax",2 h
same,AUC,"[1]; human, plasma, 100 mg, 100 mg BID oral monotherapy (Part 1A), C1D15, geometric mean, n = 2, read-out: AUCtau",4060 ng·h/mL
same,Cmax,"[1]; human, plasma, 100 mg, 100 mg BID oral monotherapy (Part 1A), C1D15 post multiple doses, geometric mean",617 ng/mL
same,Tmax,"[1]; human, plasma, 100 mg, 100 mg BID oral monotherapy (Part 1A), C1D15 post multiple doses, median, read-out: Tmax",1 h
same,Cmax,"[1]; human, plasma, 200 mg, 200 mg BID oral monotherapy (Part 1A), C1D1 post first dose, geometric mean",454 ng/mL
same,AUC,"[1]; human, plasma, 200 mg, 200 mg BID oral monotherapy (Part 1A), C1D1 post first dose, geometric mean, read-out: AUC12",2330 ng·h/mL
same,Tmax,"[1]; human, plasma, 200 mg, 200 mg BID oral monotherapy (Part 1A), C1D1 post first dose, median, read-out: Tmax",3.9 h
same,half-life,"[1]; human, plasma, 200 mg, 200 mg BID oral monotherapy (Part 1A), C1D15",5.1 h
same,AUC,"[1]; human, plasma, 200 mg, 200 mg BID oral monotherapy (Part 1A), C1D15, geometric mean, read-out: AUCtau",6370 ng·h/mL
same,Cmax,"[1]; human, plasma, 200 mg, 200 mg BID oral monotherapy (Part 1A), C1D15 post multiple doses, geometric mean",1010 ng/mL
same,Tmax,"[1]; human, plasma, 200 mg, 200 mg BID oral monotherapy (Part 1A), C1D15 post multiple doses, median, read-out: Tmax",2.5 h
same,Cmax,"[1]; human, plasma, 300 mg BID oral + fulvestrant (Part 1C), C1D1 post first dose, geometric mean",849 ng/mL
same,AUC,"[1]; human, plasma, 300 mg BID oral + fulvestrant (Part 1C), C1D1 post first dose, geometric mean, read-out: AUC12",6130 ng·h/mL
same,Tmax,"[1]; human, plasma, 300 mg BID oral + fulvestrant (Part 1C), C1D1 post first dose, median, read-out: Tmax",2 h
same,half-life,"[1]; human, plasma, 300 mg BID oral + fulvestrant (Part 1C), C1D15",5.7 h
same,AUC,"[1]; human, plasma, 300 mg BID oral + fulvestrant (Part 1C), C1D15, geometric mean, read-out: AUCtau",7890 ng·h/mL
same,Cmax,"[1]; human, plasma, 300 mg BID oral + fulvestrant (Part 1C), C1D15 post multiple doses, geometric mean",1190 ng/mL
same,Tmax,"[1]; human, plasma, 300 mg BID oral + fulvestrant (Part 1C), C1D15 post multiple doses, median, read-out: Tmax",1 h
same,Cmax,"[1]; human, plasma, 300 mg BID oral + letrozole (Part 1B), C1D1 post first dose, geometric mean",989 ng/mL
same,AUC,"[1]; human, plasma, 300 mg BID oral + letrozole (Part 1B), C1D1 post first dose, geometric mean, read-out: AUC12",6440 ng·h/mL
same,Tmax,"[1]; human, plasma, 300 mg BID oral + letrozole (Part 1B), C1D1 post first dose, median, read-out: Tmax",3 h
same,half-life,"[1]; human, plasma, 300 mg BID oral + letrozole (Part 1B), C1D15",4.1 h
same,AUC,"[1]; human, plasma, 300 mg BID oral + letrozole (Part 1B), C1D15, geometric mean, read-out: AUCtau",10400 ng·h/mL
same,Cmax,"[1]; human, plasma, 300 mg BID oral + letrozole (Part 1B), C1D15 post multiple doses, geometric mean",1520 ng/mL
same,Tmax,"[1]; human, plasma, 300 mg BID oral + letrozole (Part 1B), C1D15 post multiple doses, median, read-out: Tmax",1 h
same,Cmax,"[1]; human, plasma, 300 mg, 300 mg BID oral monotherapy (Part 1A), C1D1 post first dose, geometric mean",741 ng/mL
same,AUC,"[1]; human, plasma, 300 mg, 300 mg BID oral monotherapy (Part 1A), C1D1 post first dose, geometric mean, read-out: AUC12",4560 ng·h/mL
same,Tmax,"[1]; human, plasma, 300 mg, 300 mg BID oral monotherapy (Part 1A), C1D1 post first dose, median, read-out: Tmax",3.8 h
same,AUC,"[1]; human, plasma, 300 mg, 300 mg BID oral monotherapy (Part 1A), C1D15, geometric mean, read-out: AUCtau",8100 ng·h/mL
same,Cmax,"[1]; human, plasma, 300 mg, 300 mg BID oral monotherapy (Part 1A), C1D15 post multiple doses, geometric mean",1170 ng/mL
same,Tmax,"[1]; human, plasma, 300 mg, 300 mg BID oral monotherapy (Part 1A), C1D15 post multiple doses, median, read-out: Tmax",2.1 h
same,Cmax,"[1]; human, plasma, 400 mg BID oral + fulvestrant (Part 1C), C1D1 post first dose, geometric mean",730 ng/mL
same,AUC,"[1]; human, plasma, 400 mg BID oral + fulvestrant (Part 1C), C1D1 post first dose, geometric mean, read-out: AUC12",4840 ng·h/mL
same,Tmax,"[1]; human, plasma, 400 mg BID oral + fulvestrant (Part 1C), C1D1 post first dose, median, read-out: Tmax",2.2 h
same,half-life,"[1]; human, plasma, 400 mg BID oral + fulvestrant (Part 1C), C1D15",6.6 h
same,Cmax,"[1]; human, plasma, 400 mg BID oral + letrozole (Part 1B), C1D1 post first dose, geometric mean",950 ng/mL
same,AUC,"[1]; human, plasma, 400 mg BID oral + letrozole (Part 1B), C1D1 post first dose, geometric mean, read-out: AUC12",7110 ng·h/mL
same,Tmax,"[1]; human, plasma, 400 mg BID oral + letrozole (Part 1B), C1D1 post first dose, median, read-out: Tmax",2.2 h
same,AUC,"[1]; human, plasma, 400 mg BID oral + letrozole (Part 1B), C1D15, geometric mean, read-out: AUCtau",11500 ng·h/mL
same,Cmax,"[1]; human, plasma, 400 mg BID oral + letrozole (Part 1B), C1D15 post multiple doses, geometric mean",1420 ng/mL
same,Tmax,"[1]; human, plasma, 400 mg BID oral + letrozole (Part 1B), C1D15 post multiple doses, median, read-out: Tmax",1.6 h
same,AUC,"[1]; human, plasma, 400 mg BID, 400 mg BID oral + fulvestrant (Part 1C), C1D15, geometric mean, read-out: AUCtau",9560 ng·h/mL
same,Cmax,"[1]; human, plasma, 400 mg BID, 400 mg BID oral + fulvestrant (Part 1C), C1D15 post multiple doses, geometric mean",1380 ng/mL
same,Tmax,"[1]; human, plasma, 400 mg BID, 400 mg BID oral + fulvestrant (Part 1C), C1D15 post multiple doses, median, read-out: Tmax",1.1 h
same,Cmax,"[1]; human, plasma, 400 mg, 400 mg BID oral monotherapy (Part 1A), C1D1 post first dose, geometric mean",766 ng/mL
same,AUC,"[1]; human, plasma, 400 mg, 400 mg BID oral monotherapy (Part 1A), C1D1 post first dose, geometric mean, read-out: AUC12",5110 ng·h/mL
same,Tmax,"[1]; human, plasma, 400 mg, 400 mg BID oral monotherapy (Part 1A), C1D1 post first dose, median, read-out: Tmax",2.1 h
same,half-life,"[1]; human, plasma, 400 mg, 400 mg BID oral monotherapy (Part 1A), C1D15, n = 2",6.6 h
same,AUC,"[1]; human, plasma, 400 mg, 400 mg BID oral monotherapy (Part 1A), C1D15, geometric mean, read-out: AUCtau",8000 ng·h/mL
same,Cmax,"[1]; human, plasma, 400 mg, 400 mg BID oral monotherapy (Part 1A), C1D15 post multiple doses, geometric mean",949 ng/mL
same,Tmax,"[1]; human, plasma, 400 mg, 400 mg BID oral monotherapy (Part 1A), C1D15 post multiple doses, median, read-out: Tmax",1 h
same,Cmax,"[1]; human, plasma, 500 mg, 500 mg BID oral monotherapy (Part 1A), C1D1 post first dose, geometric mean",637 ng/mL
same,AUC,"[1]; human, plasma, 500 mg, 500 mg BID oral monotherapy (Part 1A), C1D1 post first dose, geometric mean, read-out: AUC12",4170 ng·h/mL
same,Tmax,"[1]; human, plasma, 500 mg, 500 mg BID oral monotherapy (Part 1A), C1D1 post first dose, median, read-out: Tmax",1.9 h
same,AUC,"[1]; human, plasma, 500 mg, 500 mg BID oral monotherapy (Part 1A), C1D15, n = 1, read-out: AUCtau",12500 ng·h/mL
same,Cmax,"[1]; human, plasma, 500 mg, 500 mg BID oral monotherapy (Part 1A), C1D15 post multiple doses, geometric mean",1760 ng/mL
same,Tmax,"[1]; human, plasma, 500 mg, 500 mg BID oral monotherapy (Part 1A), C1D15 post multiple doses, median, read-out: Tmax",4 h
same,Tmax,"[1]; human, plasma, following oral dose administration, across cohorts (100 to 500 mg BID), read-out: median Tmax values",1 to 4 h
same,concentration at 15 day,"[1]; human, plasma, 100 mg BID oral monotherapy (Part 1A), C1D15, geometric mean, read-out: Cmin",231 ng/mL
same,SGI,[2]; 100 nM single agent,27%
same,SGI,[2]; 300 nM single agent,38; 38%
same,SGI,[2]; 1000 nM single agent,53%
same,SGI,[3]; 100 nM single agent,57% and 67%
same,SGI,[3]; 300 nM single agent,74%
same,SGI,[3]; 1000 nM single agent,86%
